# Measurements as given in article PMC7497180 (Chembiochem, 2020).
# Entries after “also recorded” stand apart in the source; their conditions may differ.
# Key:
# THP1‐NTR^+ cells [1] = experiment: MTS cell viability assay, NTR-expressing cells; assay type: cell-based
# THP1‐NTR^+ cells [2] = experiment: Colony forming unit; assay type: cell-based; conditions: for EC50: read-out: THP1‐NTR^+ CFU EC50; for Selectivity window THP1^wt / THP1‐NTR^+: CFU EC50 ratio
# THP1^wt cells [3] = experiment: CD86-based cell assay; conditions: 72 h, read-out: THP1^wt CD86^+ EC50
# THP1^wt cells [4] = experiment: Colony forming unit
# THP1‐NTR^+ cells [5] = experiment: CD86-based cell assay; conditions: for EC50: 72 h, read-out: THP1‐NTR^+ CD86^+ EC50; for Selectivity window THP1^wt / THP1‐NTR^+: CD86 EC50 ratio
# THP1^wt cells [6] = experiment: MTS cell viability assay, non-transfected cells; assay type: cell-based
# LSD1 = LSD1 (Homo sapiens, UniProt O60341); conditions: cited from earlier work
# THP1‐NTR^+ cells [7] = experiment: Luminescent measurement of NTR activity in cells, NTR-expressing; assay type: cell-based; conditions: 25 μM, 60 min
# THP1^wt cells [8] = experiment: Luminescent measurement of NTR activity in cells, non-transfected; assay type: cell-based; conditions: 25 μM, 60 min
# recombinant NTR = experiment: Luminescent probe activation by recombinant NTR in vitro; assay type: biochemical, E. coli; conditions: low NTR concentrations (18–30 nM)
# [9] = target: T1, nitroreductase NfsB (NTR) (Escherichia coli, UniProt P38489); assay type: biochemical, E. coli
# T1 sequence (P38489 1-217): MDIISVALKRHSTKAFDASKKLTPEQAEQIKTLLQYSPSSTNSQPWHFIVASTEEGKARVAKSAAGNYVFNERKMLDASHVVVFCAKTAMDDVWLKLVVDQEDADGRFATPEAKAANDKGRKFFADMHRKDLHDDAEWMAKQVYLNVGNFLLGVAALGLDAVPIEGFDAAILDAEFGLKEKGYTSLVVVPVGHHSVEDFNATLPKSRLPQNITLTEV
# [10] = system: mixtures of the cell lines THP1^wt and THP1‐NTR^+; experiment: Bystander effect in the CFU assay; assay type: cell-based; conditions: at 1.0 μM
# [11] = 240 h, read-out: THP1^wt CFU EC50
# [12] = read-out: THP1^wt CFU EC50, 10 days
Compound,EC50 (THP1‐NTR^+ cells [2]; 240 h),EC50 (THP1^wt cells [3]; Homo sapiens),EC50 (THP1^wt cells [4]; [11]),EC50 (THP1‐NTR^+ cells [5]; Homo sapiens),EC50 (THP1‐NTR^+ cells [2]; 10 days),EC50 (THP1^wt cells [3]; FACS),EC50 (THP1^wt cells [4]; [12]),cytotoxicity in THP1‐NTR^+ (in words) (THP1‐NTR^+ cells [1]),cytotoxicity in THP1^wt (in words) (THP1^wt cells [6]),Selectivity window THP1^wt / THP1‐NTR^+ (THP1‐NTR^+ cells [2]),Selectivity window THP1^wt / THP1‐NTR^+ (THP1‐NTR^+ cells [5]),probe conversion in NTR-expressing THP1 cells (in words) (THP1‐NTR^+ cells [7]),probe conversion in nontransfected THP1^wt cells (in words) (THP1^wt cells [8]),also measured
"COc1ncccc1CN[C@@H]1C[C@H]1c1ccccc1 (racemic) [1 a, trans‐N‐((2‐Methoxypyridin‐3‐yl) methyl)‐2‐phenylcyclopropan‐1‐amine, reference compound]",40 ± 10 nM,3 ± 0.3 nM,60 ± 20 nM,4.1 ± 0.4 nM,,,,no cytotoxic effect,no cytotoxic effect,,,,,EC50 (THP1^wt cells [4]; read-out: colony formation EC50): 68 ± 12 nM
"N#Cc1nc2ccc(OCc3ccc([N+](=O)[O-])s3)cc2s1 [compound 4, 6‐((5‐Nitrothiophen‐2‐yl)methoxy)benzo[d]thiazole‐2‐carbonitrile]",,,,,,,,,,,,converted to luciferin,no activation,
"CN(CCN(C)C(=O)Oc1ccc2nc(C#N)sc2c1)C(=O)OCc1ccc([N+](=O)[O-])s1 [compound 5, 2‐Cyanobenzo[d]thiazol‐6‐yl ((5‐nitrothiophen‐2‐yl)methyl) ethane‐1,2‐diylbis(methyl carbamate)]",,,,,,,,,,,,converted to luciferin,no activation,factor by which conversion exceeds that of probe 4 (recombinant NTR): at least 5

# The next lines start with results.
EC50 (THP1‐NTR^+ cells [2]; 240 h),EC50 (THP1^wt cells [3]; Homo sapiens),EC50 (THP1^wt cells [4]; [11]),EC50 (THP1‐NTR^+ cells [5]; Homo sapiens),EC50 (THP1‐NTR^+ cells [2]; 10 days),EC50 (THP1^wt cells [3]; FACS),EC50 (THP1^wt cells [4]; [12]),Compound,cytotoxicity in THP1‐NTR^+ (in words) (THP1‐NTR^+ cells [1]),cytotoxicity in THP1^wt (in words) (THP1^wt cells [6]),Selectivity window THP1^wt / THP1‐NTR^+ (THP1‐NTR^+ cells [2]),Selectivity window THP1^wt / THP1‐NTR^+ (THP1‐NTR^+ cells [5]),probe conversion in NTR-expressing THP1 cells (in words) (THP1‐NTR^+ cells [7]),probe conversion in nontransfected THP1^wt cells (in words) (THP1^wt cells [8]),also measured
32400 ± 1700 nM,17600 nM,45500 ± 3200 nM,15300 nM,,,,"COc1ncccc1CN[C@H]1[C@@H](C)[C@@H]1c1ccccc1 (relative stereo) [2 a, (1S*,2S*,3R*)‐N‐((2‐Methoxypyridin‐3‐yl) methyl)‐2‐methyl‐3‐phenylcyclo propan‐1‐amine]",no cytotoxic effect,no cytotoxic effect,1±1,1±1,,,LSD1 inhibition (in words) (LSD1): lack inhibitory activity on LSD1 in the low micromolar range; also recorded: inactive on LSD1 below 10 μM; THP1‐NTR^+ CD86^+ cells (THP1‐NTR^+ cells [5]; at 10 μM): 34%
,,,,330 ± 70 nM,376 ± 17 nM,4400 ± 700 nM,"(1‐Methyl‐2‐nitro‐1H‐imidazol‐5‐yl)methyl((2‐methoxypyridin‐3‐yl)methyl) ((1S*,2R*)‐2‐phenylcyclopropyl)carbamate [1 f]",cytotoxic effects,,14±4,66±8,,,"% conversion to 1a (fragmentation) ([9]; HPLC of Fmoc derivative 3 after NTR reaction, Figure 3C): 59.3%; factor of prodrug fragmentation relative to 4-nitrobenzyl 1 b ([9]; calculated from fragmentation data, Figure 3D): 17 x; effect on colony formation in THP1^wt (in words) (THP1^wt cells [4]): no effect in THP1^wt up to 2 μM; bystander effect in the CFU assay [10]: no bystander effect; EC50 (THP1‐NTR^+ cells [5]; FACS): 5.7 ± 0.4 nM"
,,,,900 ± 200 nM,> 50000 nM,> 50000 nM,"(1‐Methyl‐2‐nitro‐1H‐imidazol‐5‐yl)methyl((2‐methoxypyridin‐3‐yl)methyl) ((1S*,2S*,3R*)‐2‐methyl‐3‐phenylcyclopropyl)carbamate [2 f]",cytotoxicity,,>58±13,,,,
